IC50 data for 25 compounds are collected here from patent US8895547B2, “Substituted phenyl-oxathiazine derivatives, method for producing them, drugs containing said compounds and the use thereof” (Sanofi, priority 2011, dated 2014).

As usually defined, the IC50 is the concentration at which inhibition is half-maximal. The low end stands for inhibition by little substance, the high end for a need for much substance.

The assay deals with T1, human 11β-HSD1 (Homo sapiens, UniProt P28845).
T1 construct: host or cells: microsome fraction
T1 sequence (P28845 whole entry): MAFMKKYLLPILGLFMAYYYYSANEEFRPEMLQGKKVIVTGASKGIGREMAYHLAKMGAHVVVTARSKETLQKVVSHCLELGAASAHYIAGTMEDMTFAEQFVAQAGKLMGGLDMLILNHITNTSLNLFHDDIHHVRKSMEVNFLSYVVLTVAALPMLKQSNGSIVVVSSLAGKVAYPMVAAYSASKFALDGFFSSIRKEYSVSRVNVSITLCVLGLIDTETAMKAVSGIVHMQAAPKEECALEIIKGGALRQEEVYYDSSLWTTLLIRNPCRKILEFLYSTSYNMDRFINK
The experiment in a line: Enzymatic 11beta-HSD1 test (SPA-based detection). The assay is classed as biochemical. Conditions: human 11β-HSD1 microsome fraction, [1,2-3H]-cortisone, NADPH, 37° C. 1 hour. As for the experimental part: Enzymatic 11beta-HSD1 test:
To measure the activity of the compounds, an SPA-based detection method (Solly et al. 2005) was employed. First of all, 20 μl of the human 11β-HSD1 microsome fraction (0.2 μg of protein), prepared in 50 mM HEPES, 0.1% BSA (w/v), were applied to a plate with 384 wells. The test compounds (0.09 μl) were applied to the assay plate in 100% DMSO. The reaction was started by addition of 20 μl of [1,2-^3H]-cortisone (0.1 μCi/[…]) in assay buffer comprising 25 mM HEPES, 100 mM KCl, 5 mM NaCl, 2 mM MgCl2 and 0.25 mM NADPH. The plate was agitated at 37° C. for 1 hour. At the same time, a stop solution comprising 20 mg/ml SPA-PVT beads, 1.6 mg/ml monoclonal cortisol antibody and 0.01 mM SSR110887 (inhibitor from the Biovitrium patent) in 50 mM HEPES, 1 M NaCl and 1 M KCl was stirred at room temperature. To stop the reaction, 25 μl of the stop solution were added to each well. The plate was agitated gently at room temperature for 1 further hour and then centrifuged at 500 gav for 1 minute, in order that the SPA beads could settle out. The plate was then read in a Wallac-1450-Microbeta unit with a standard SPA program (counting time 1 min/well). The comparative compound was glycyrrhetinic acid.
Protein and radioactive substrate were dispensed with a Biomek FX unit (Beckman Coulter) for handling liquids. The test compounds were added with a Cybi-Well equipped with a 90 nl pin tool (CyBio).
Lit.: Solly S, Mundt S S, Zokian H J, Juy-Fang Ding G, Hermanowski-Vosatka A, Strulovici B and Zheng W. High-throughput screening of 11β-Hydroxysteroid dehydrogenase type 1 in scintillation proximity format. Assay Drug Dev Technol 2005; 3:377-384.

The compound `CC1(C)OC(N[C@@H](CCO)c2ccccc2F)=NS(=O)(=O)C1c1ccc(N2CCN(CCC(F)(F)F)CC2)cc1` (mixture of isomers) [Example 131, (S)-3-(6,6-Dimethyl-4,4-dioxo-5-{4-[4-(3,3,3-trifluoropropyl)-piperazin-1-yl]-phenyl}-5,6-dihydro-4H-4lambda6-[1,4,3]oxathiazin-2-ylamino)-3-(2-fluorophenyl)-propan-1-ol] returned a concentration for half-maximal inhibition (IC50) of 0.017 µM.

On to `CC1(C)OC(N[C@@H](CCO)c2ccccc2)=NS(=O)(=O)C1c1ccccc1` (single isomer, unassigned) [Example 28], for which the half-maximal inhibitory concentration (IC50) was found to be 0.016 µM.

For the compound `CC1(C)OC(N[C@@H](CCO)c2ccccc2)=NS(=O)(=O)C1c1ccccc1` (single isomer, unassigned) [Example 29], half-maximal inhibition (IC50) was put at 0.023 µM.

Consider `CC1(C)OC(N[C@@H](CCO)c2ccccc2F)=NS(=O)(=O)C1c1ccc(-c2ccccc2)cc1` (single isomer, unassigned) [Example 69], for which the IC50 was found to be 0.013 µM.

In turn, `CC1(C)OC(N[C@@H](CCO)c2ccccc2F)=NS(=O)(=O)C1c1ccc(-c2ccccc2)cc1` (single isomer, unassigned) [Example 70] returned an IC50 of 0.019 µM.

For `CC1(C)OC(N[C@@H](CCO)c2ccccc2F)=NS(=O)(=O)C1(C)c1cccc(-c2ccccc2)c1` (single isomer, unassigned) [Example 74], it took 0.012 µM to reach half-maximal inhibition (IC50).

As to `CC1(C)OC(N[C@@H](CCO)c2ccccc2F)=NS(=O)(=O)C1(C)c1cccc(-c2ccccc2)c1` (single isomer, unassigned) [Example 75], the IC50 is 0.044 µM.

As for `CC(C)(C)c1ccc(C2C(C)(C)OC(N[C@@H](CCO)c3ccccc3F)=NS2(=O)=O)cc1` (single isomer, unassigned) [Example 84], the midpoint of inhibition, the IC50, lay at 0.015 µM.

In turn, `CC(C)(C)c1ccc(C2C(C)(C)OC(N[C@@H](CCO)c3ccccc3F)=NS2(=O)=O)cc1` (single isomer, unassigned) [Example 85] had an IC50 of 0.009 µM.

`CC1(C)OC(N[C@@H](CCO)c2ccccc2F)=NS(=O)(=O)C1c1ccc(N2CCN(CCC(F)(F)F)CC2)cc1` (single isomer, unassigned) [Example 182] showed a concentration for half-maximal inhibition (IC50) of 0.006 µM.

For `CC1(C)OC(N[C@@H](CCO)c2ccccc2F)=NS(=O)(=O)C1c1ccc(N2CCN(CCC(F)(F)F)CC2)cc1` (single isomer, unassigned) [Example 183], the half-maximal inhibitory concentration (IC50) turned out to be 0.02 µM.

Turning to `CC1(C)OC(N[C@@H](CCO)c2ccccc2)=NS(=O)(=O)C1c1cccc(C(F)(F)F)c1` (stereo partly drawn) [Compound 21, (S)-3-[6,6-Dimethyl-4,4-dioxo-5-(3-trifluoromethylphenyl)-5,6-dihydro-4H-4lambda6-[1,4,3]oxathiazin-2-ylamino]-3-phenylpropan-1-ol], the IC50 worked out at 0.022 µM.

In the case of `CC1(C)OC(N[C@@H](CCO)c2ccccc2)=NS(=O)(=O)C1(C)c1cccc(N2CCN(S(C)(=O)=O)CC2)c1` (stereo partly drawn) [Compound 34, (S)-3-{5-[3-(4-Methanesulfonylpiperazin-1-yl)-phenyl]-5,6,6-trimethyl-4,4-dioxo-5,6-dihydro-4H-4lambda6-[1,4,3]oxathiazin-2-ylamino}-3-phenylpropan-1-ol], 0.017 µM corresponded to half-maximal inhibition (IC50).

For the compound `C[C@H](NC1=NS(=O)(=O)C(C)(c2cccc(N3CCN(S(C)(=O)=O)CC3)c2)C(C)(C)O1)c1ccccc1F` (stereo partly drawn) [Compound 35, [(S)-1-(2-Fluorophenyl)ethyl]-{5-[3-(4-methanesulfonylpiperazin-1-yl)-phenyl]-5,6,6-trimethyl-4,4-dioxo-5,6-dihydro-4H-4lambda6-[1,4,3]oxathiazin-2-yl}amine], half-maximal inhibition (IC50) was put at 0.015 µM.

In the case of `C[C@H](NC1=NS(=O)(=O)C(C)(c2cccc(N3CCCC3)c2)C(C)(C)O1)c1ccccc1F` (stereo partly drawn) [Compound 36, [(S)-1-(2-Fluorophenyl)ethyl]-[5,6,6-trimethyl-4,4-dioxo-5-(3-pyrrolidin-1-ylphenyl)-5,6-dihydro-4H-4lambda6-[1,4,3]oxathiazin-2-yl]amine], half-maximal inhibition (IC50) was put at 0.015 µM.

Consider `CC1(C)OC(N[C@@H](CCO)c2ccccc2)=NS(=O)(=O)C1(C)c1cccc(N2CCCC2)c1` (stereo partly drawn) [Compound 38, (S)-3-Phenyl-3-[5,6,6-trimethyl-4,4-dioxo-5-(3-pyrrolidin-1-ylphenyl)-5,6-dihydro-4H-4lambda6-[1,4,3]oxathiazin-2-ylamino]propan-1-ol], for which the concentration for half-maximal inhibition (IC50) is 0.019 µM.

The compound `CC1(C)OC(N[C@@H](CCO)c2ccccc2)=NS(=O)(=O)C1(C)c1cccc(N2CCCC2)c1` (stereo partly drawn) [Compound 39, (S)-3-Phenyl-3-[5,6,6-trimethyl-4,4-dioxo-5-(3-pyrrolidin-1-ylphenyl)-5,6-dihydro-4H-4lambda6-[1,4,3]oxathiazin-2-ylamino]propan-1-ol] showed an IC50 of 0.024 µM.

With `CC1(C)OC(N[C@@H](CCO)c2ccccc2)=NS(=O)(=O)C1(C)c1cccc(-c2cncnc2)c1` (stereo partly drawn) [Compound 40, (S)-3-Phenyl-3-[5,6,6-trimethyl-4,4-dioxo-5-(3-pyrimidin-5-ylphenyl)-5,6-dihydro-4H-4lambda6-[1,4,3]oxathiazin-2-ylamino]propan-1-ol], the IC50 turned out to be 0.015 µM.

For the compound `C[C@H](NC1=NS(=O)(=O)C(C)(c2cccc(-c3cncnc3)c2)C(C)(C)O1)c1ccccc1F` (stereo partly drawn) [Compound 41, [(S)-1-(2-Fluorophenyl)ethyl]-[5,6,6-trimethyl-4,4-dioxo-5-(3-pyrimidin-5-ylphenyl)-5,6-dihydro-4H-4lambda6-[1,4,3]oxathiazin-2-yl]amine], the IC50 amounted to 0.01 µM.

`C[C@H](NC1=NS(=O)(=O)C(C)(c2ccccc2)C(C)(C)O1)c1ccccc1F` (stereo partly drawn) [Compound 43, [(S)-1-(2-Fluorophenyl)ethyl]-(5,6,6-trimethyl-4,4-dioxo-5-phenyl-5,6-dihydro-4H-4lambda6-[1,4,3]oxathiazin-2-yl)amine] yielded an IC50 of 0.007 µM.

For `CC1(C)OC(N[C@@H](CCO)c2ccccc2F)=NS(=O)(=O)C1(C)c1cccc(N2CCCC2)c1` (stereo partly drawn) [Compound 45, (S)-3-(2-Fluorophenyl)-3-[5,6,6-trimethyl-4,4-dioxo-5-(3-pyrrolidin-1-ylphenyl)-5,6-dihydro-4H-4lambda6-[1,4,3]oxathiazin-2-ylamino]propan-1-ol], it took 0.011 µM to reach half-maximal inhibition (IC50).

Take `CC1(C)OC(N[C@@H](CCO)c2ccccc2F)=NS(=O)(=O)C1(C)c1ccccc1` (stereo partly drawn) [Compound 48, (S)-3-(2-Fluorophenyl)-3-(5,6,6-trimethyl-4,4-dioxo-5-phenyl-5,6-dihydro-4H-4lambda6-[1,4,3]oxathiazin-2-ylamino)propan-1-ol]: half-maximal inhibition (IC50) was put at 0.005 µM.

On to `CC1(C)OC(N[C@@H](CCO)c2ccccc2F)=NS(=O)(=O)C1(C)c1cccc(N2CCCC2)c1` (stereo partly drawn) [Compound 49, (S)-3-(2-Fluorophenyl)-3-[5,6,6-trimethyl-4,4-dioxo-5-(3-pyrrolidin-1-ylphenyl)-5,6-dihydro-4H-4lambda6-[1,4,3]oxathiazin-2-ylamino]propan-1-ol], for which the concentration for half-maximal inhibition (IC50) stood at 0.024 µM.

In the case of `C[C@H](NC1=NS(=O)(=O)C(c2ccc(-c3ccccc3)cc2)C(C)(C)O1)c1ccccc1F` (stereo partly drawn) [Compound 52, (5-Biphenyl-4-yl-6,6-dimethyl-4,4-dioxo-5,6-dihydro-4H-4lambda6-[1,4,3]oxathiazin-2-yl)-[(S)-1-(2-fluorophenyl)ethyl]amine], the IC50 was 0.064 µM.

The compound `C[C@H](NC1=NS(=O)(=O)C(C)(c2ccccc2)C(C)(C)O1)c1ccccc1F` (stereo partly drawn) [Compound 56, [(S)-1-(2-Fluorophenyl)ethyl]-(5,6,6-trimethyl-4,4-dioxo-5-phenyl-5,6-dihydro-4H-4lambda6-[1,4,3]oxathiazin-2-yl)amine, stereomer 1] showed an IC50 of 0.008 µM.
